Results reported in patent US20230272484A1, “METHODS OF PROGNOSING, DETERMINING TREATMENT COURSE AND TREATING MULTIPLE MYELOMA” (Yeda Research and Development Co. Ltd., priority 2020, published 2023).

Tested on: ex-vivo cultured patient malignant plasma cells (PRMM patient Z01)
Assay: FACS apoptosis assay (DAPI and Annexin-V) on ex vivo cultured patient cells
Assay type: cell-based, human
Conditions: resistant PRMM patient Z01, DAPI and Annexin-V FACS
Method: Finally, it was evaluated whether this synergistic effect is also relevant to PI resistant MM patients. For this end, the present inventors collected BM sample from a highly resistant PRMM patient (Z01, Methods) and sorted the cells for MARS-seq analysis, confirming the patient is also positive for the resistance signature 1 (FIGS. 9E-G). […] The present inventors evaluated the patient ex vivo response to these treatments by FACS analysis of apoptotic cells using DAPI and Annexin-V staining.

## CC(C)C[C@H](NC(=O)[C@H](CCc1ccccc1)NC(=O)CN1CCOCC1)C(=O)N[C@@H](Cc1ccccc1)C(=O)N[C@@H](CC(C)C)C(=O)[C@@]1(C)CO1 [Carfilzomib]
  live cells: 23.4%
